Results reported in patent US10450356B2, “PRAME derived peptides and immunogenic compositions comprising these” (Academisch Ziekenhuis Leiden H.O.D.N. LUMC, priority 2007, dated 2019).

Molecular target: T1, 20S proteasomes purified from a B-LCL cell line (immunoproteasomes) (Homo sapiens, UniProt P28062+P28065+P40306)
T1 construct: 20S proteasomes were purified from a B-LCL cell line; endogenous in cells; purified after Groettrup et al. 1995
Assay: In vitro proteasome mediated cleavage analysis
Assay type: biochemical
Set-up: key to Intact in fragment / Intact Fragment: intact epitope found in digestion fragments: (+), present; (-), not present; key to Processing C-term: generation by proteasome-mediated digestion of fragments containing the correct C-terminus: (++) fragments present for >5%; (+) present for <5%; (-) no fragments containing the C-term. were found
Settings: for Processing C-term: generation by proteasome-mediated digestion of fragments containing the correct C-terminus: 1 h digestion; for Intact Fragment: intact epitope found in digestion fragments: after 1 h digestion
Summary of the method: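 Cleavage products were analysed by on-line nanoESI Q-TOF mass spectrometry, and relative fragment amounts came from peak intensities. Digests contained 20 μg of 27-mer peptide and 1 μg of 20S immunoproteasome purified from B-LCL cells. They ran at 37° C for 1, 4 or 24 h and were stopped with trifluoroacetic acid.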

SMILES	Processing C-term: generation by proteasome-mediated digestion of fragments containing the correct C-terminus	Intact Fragment: intact epitope found in digestion fragments	C-term. generation (generation of C-terminus of the epitope after 1 h digestion)	Intact in fragment (intact epitope found in digestion fragments after 1 h digestion)
CC(C)C[C@H](NC(=O)[C@H](CCC(=O)O)NC(=O)[C@H](CS)NC(=O)[C@H](CC(C)C)NC(=O)[C@H](CC(C)C)NC(=O)[C@H](CCC(=O)O)NC(=O)[C@H](CCCNC(=N)N)NC(=O)[C@H](CC(C)C)NC(=O)[C@@H](N)CCCNC(=N)N)C(=O)O	-	-		
CSCC[C@H](N)C(=O)N[C@@H](CC(C)C)C(=O)N[C@H](C(=O)N[C@@H](CC(=O)O)C(=O)N[C@H](C(=O)N[C@@H](CO)C(=O)N1CCC[C@H]1C(=O)N[C@@H](CCC(=O)O)C(=O)N1CCC[C@H]1C(=O)N[C@@H](CC(C)C)C(=O)O)C(C)C)[C@@H](C)O	-	-		
CC[C@H](C)[C@H](NC(=O)[C@H](CC(=O)O)NC(=O)[C@H](CCC(N)=O)NC(=O)[C@H](CCSC)NC(=O)[C@@H]1CCCN1C(=O)[C@H](CCSC)NC(=O)[C@H](C)NC(=O)[C@H](Cc1ccccc1)NC(=O)[C@@H](NC(=O)[C@@H](N)CCCCN)[C@@H](C)CC)C(=O)O	-	-		
CC[C@H](C)[C@H](NC(=O)[C@H](C)NC(=O)[C@H](CC(C)C)NC(=O)[C@H](C)NC(=O)[C@H](CCC(=O)O)NC(=O)[C@H](CC(=O)O)NC(=O)[C@H](CCCCN)NC(=O)[C@H](CC(C)C)NC(=O)[C@@H](N)CC(C)C)C(=O)O	++ ((++) fragments present for >5%)	+	++ (abundant (++) present for >5%)	+
CSCC[C@H](NC(=O)[C@@H](NC(=O)CNC(=O)[C@H](CO)NC(=O)[C@H](CC(C)C)NC(=O)[C@@H](N)CO)C(C)C)C(=O)N[C@@H](CC(C)C)C(=O)N[C@H](C(=O)N[C@@H](CC(=O)O)C(=O)N[C@H](C(=O)O)C(C)C)[C@@H](C)O	-	-		

Second part, the compound after the results:

Processing C-term: generation by proteasome-mediated digestion of fragments containing the correct C-terminus	Intact Fragment: intact epitope found in digestion fragments	C-term. generation (generation of C-terminus of the epitope after 1 h digestion)	Intact in fragment (intact epitope found in digestion fragments after 1 h digestion)	SMILES
-	-			CC(C)C[C@H](NC(=O)[C@H](CCCNC(=N)N)NC(=O)[C@H](CC(C)C)NC(=O)[C@@H](NC(=O)[C@@H](N)CC(N)=O)C(C)C)C(=O)N[C@@H](CS)C(=O)N[C@@H](CS)C(=O)N[C@@H](CCCCN)C(=O)N[C@@H](CCCCN)C(=O)O
-	-			CC[C@H](C)[C@H](NC(=O)[C@H](CO)NC(=O)CNC(=O)[C@H](Cc1c[nH]c2ccccc12)NC(=O)[C@H](CC(C)C)NC(=O)[C@@H](N)CCCNC(=N)N)C(=O)N[C@@H](CCC(N)=O)C(=O)N[C@@H](CO)C(=O)N[C@@H](CCCNC(=N)N)C(=O)N[C@@H](Cc1ccc(O)cc1)C(=O)O
-	-			CC(C)C[C@H](NC(=O)[C@@H](NC(=O)[C@@H]1CCCN1)[C@@H](C)O)C(=O)N[C@@H](C)C(=O)N[C@@H](CCCCN)C(=O)N[C@@H](Cc1ccccc1)C(=O)N[C@@H](CO)C(=O)N1CCC[C@H]1C(=O)N[C@@H](Cc1ccc(O)cc1)C(=O)O
-	-			CC(C)C[C@H](NC(=O)[C@H](CO)NC(=O)[C@H](C)NC(=O)[C@H](CCCNC(=N)N)NC(=O)[C@H](CC(N)=O)NC(=O)CNC(=O)[C@H](CO)NC(=O)[C@@H](N)Cc1c[nH]c2ccccc12)C(=O)N[C@@H](Cc1ccc(O)cc1)C(=O)O
-	-			CC[C@H](C)[C@H](NC(=O)[C@H](CCSC)NC(=O)[C@H](CCC(N)=O)NC(=O)CNC(=O)[C@H](CC(C)C)NC(=O)[C@H](Cc1ccc(O)cc1)NC(=O)[C@@H]1CCCN1C(=O)[C@H](CO)NC(=O)[C@H](Cc1ccccc1)NC(=O)[C@@H](N)CCCCN)C(=O)O
